Molecules are shown by their SMILES. Counter-ions that a name gives are not always drawn.

The first series has as its target T1, human O-GlcNAcase (Homo sapiens, UniProt O60502).
T1 sequence (O60502 1-916): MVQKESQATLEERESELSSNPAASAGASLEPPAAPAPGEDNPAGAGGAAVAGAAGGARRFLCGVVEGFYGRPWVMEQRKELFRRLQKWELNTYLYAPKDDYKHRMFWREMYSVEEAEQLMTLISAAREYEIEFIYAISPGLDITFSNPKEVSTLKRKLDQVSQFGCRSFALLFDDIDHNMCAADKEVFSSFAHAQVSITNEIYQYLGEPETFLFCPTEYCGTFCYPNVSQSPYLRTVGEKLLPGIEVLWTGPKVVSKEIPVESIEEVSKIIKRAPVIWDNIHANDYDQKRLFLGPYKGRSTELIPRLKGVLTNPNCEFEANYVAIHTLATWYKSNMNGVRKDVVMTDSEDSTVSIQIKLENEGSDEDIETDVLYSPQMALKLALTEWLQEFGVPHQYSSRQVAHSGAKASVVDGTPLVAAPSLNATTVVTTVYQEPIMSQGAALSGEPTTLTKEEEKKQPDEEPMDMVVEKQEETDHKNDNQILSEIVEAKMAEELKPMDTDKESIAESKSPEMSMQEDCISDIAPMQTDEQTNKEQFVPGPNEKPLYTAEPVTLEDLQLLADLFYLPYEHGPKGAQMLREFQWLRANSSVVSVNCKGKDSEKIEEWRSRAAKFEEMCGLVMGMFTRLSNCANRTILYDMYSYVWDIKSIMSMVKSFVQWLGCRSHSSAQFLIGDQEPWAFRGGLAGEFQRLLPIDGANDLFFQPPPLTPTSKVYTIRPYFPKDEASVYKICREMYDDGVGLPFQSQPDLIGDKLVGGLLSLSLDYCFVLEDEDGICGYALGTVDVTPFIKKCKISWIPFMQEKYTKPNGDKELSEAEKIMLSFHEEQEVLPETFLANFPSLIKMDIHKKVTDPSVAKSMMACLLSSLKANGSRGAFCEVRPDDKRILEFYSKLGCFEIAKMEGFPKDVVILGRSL
The series is described as follows: Determination of KI values for inhibition of O-GlcNAcase activity (fluorescence-based hOGA Ki). The note with it: purified human O-GlcNAcase 0.7 nM, 2 mM 4-Methylumbelliferyl N-acetyl-β-D-glucosaminide, pH 7.0, Cheng-Prusoff. The format is biochemical. The procedure: Experimental procedure for kinetic analyses: Enzymatic reactions were carried out in a reaction containing 50 mM NaH2PO4, 100 mM NaCl and 0.1% BSA (pH 7.0) using 2 mM 4-Methylumbelliferyl N-acetyl-β-D-glucosaminide dihydrate (Sigma M2133) dissolved in ddH2O, as a substrate. The amount of purified human O-GlcNAcase enzyme used in the reaction was 0.7 nM. Test compound of varying concentrations was added to the enzyme prior to initiation of the reaction. The reaction was performed at room temperature in a 96-well plate and was initiated with the addition of substrate. The production of fluorescent product was measured every 60 sec for 45 min with a Tecan Infinite M200 plate-reader with excitation at 355 nm and emission detected at […], with 4-Methylumbelliferone (Sigma M1381) used to produce a standard curve. The slope of product production was determined for each concentration of compound tested and plotted, using standard curve fitting algorithms for sigmoidal dose response curves. The values for a four parameter logistic curve fit of the data were determined.
KI values were determined using the Cheng-Prusoff equation; the Km of O-GlcNAcase for substrate was 0.2 mM.
As a reminder, the Ki is a dissociation constant, usually derived from enzyme kinetics or from competition with a known ligand. In turn, `CNC(=O)[C@H]1N[C@H](CO)[C@@H](O)[C@H](O)[C@@H]1O` [(2S,3R,4S,5R,6R)-3,4,5-trihydroxy-6-(hydroxymethyl)-N-methylpiperidine-2-carboxamide (hydrochloride salt), reference compound] displayed a Ki of 165 nM.

As for `CNC(=O)[C@@H]1[C@@H](O)[C@@H](O)[C@H](O)[C@@H](CO)N1C` [Example 1, (2S,3R,4S,5R,6R)-3,4,5-trihydroxy-6-(hydroxymethyl)-N,1-dimethylpiperidine-2-carboxamide hydrochloride], the Ki was 1470 nM.

The compound `CNC(=O)[C@@H]1[C@@H](O)[C@@H](O)[C@H](O)[C@@H](CO)N1C/C=C/c1ccc(-c2ccccc2)cc1` [Example 2, (2S,3R,4S,5R,6R)-1-((E)-3-([1,1′-biphenyl]-4-yl)allyl)-3,4,5-trihydroxy-6-(hydroxymethyl)-N-methylpiperidine-2-carboxamide] gave a Ki of 1810 nM.

`CNC(=O)[C@@H]1[C@@H](O)[C@@H](O)[C@H](O)[C@@H](CO)N1CCCc1ccc(-c2ccccc2)cc1` [Example 3, (2S,3R,4S,5R,6R)-1-(3-([1,1′-biphenyl]-4-yl)propyl)-3,4,5-trihydroxy-6-(hydroxymethyl)-N-methylpiperidine-2-carboxamide] had a Ki of 9.4 nM.

`CCNC(=O)[C@H]1N[C@H](CO)[C@@H](O)[C@H](O)[C@@H]1O` [Example 4, (2S,3R,4S,5R,6R)-N-ethyl-3,4,5-trihydroxy-6-(hydroxymethyl)piperidine-2-carboxamide hydrochloride]: the Ki stood at 3300 nM.

`CNC(=O)[C@@H]1[C@@H](O)[C@@H](O)[C@H](O)[C@@H](CO)N1CCCc1ccccc1` [Example 5, (2S,3R,4S,5R,6R)-3,4,5-trihydroxy-6-(hydroxymethyl)-N-methyl-1-(3-phenylpropyl)piperidine-2-carboxamide] showed a Ki of 1700 nM.

Compound `CCNC(=O)[C@@H]1[C@@H](O)[C@@H](O)[C@H](O)[C@@H](CO)N1CCCc1ccccc1` [Example 6, (2S,3R,4S,5R,6R)-N-ethyl-3,4,5-trihydroxy-6-(hydroxymethyl)-1-(3-phenylpropyl)piperidine-2-carboxamide] came in with a Ki of 2500 nM.

On to `CNC(=O)[C@@H]1[C@@H](O)[C@@H](O)[C@H](O)[C@@H](CO)N1CCCCc1ccccc1` [Example 7, (2S,3R,4S,5R,6R)-3,4,5-trihydroxy-6-(hydroxymethyl)-N-methyl-1-(4-phenylbutyl)piperidine-2-carboxamide], for which the Ki worked out at 252 nM.

In the case of `CNC(=O)[C@@H]1[C@@H](O)[C@@H](O)[C@H](O)[C@@H](CO)N1CCCCC(C)C` [Example 8, (2S,3R,4S,5R,6R)-3,4,5-trihydroxy-6-(hydroxymethyl)-N-methyl-1-(5-methylhexyl)piperidine-2-carboxamide], the inhibition constant (Ki) was determined as 620 nM.

Tested on in another series: not listed separately
The series can be described thus: Determination of apparent permeability (Papp), bi-directional transport in LLC-PK1 cells. The format is in vitro ADME. The note with it: pig, test compound 1 μM, t=3 h, average of A to B and B to A. The procedure: Bi-directional transport is evaluated in LLC-PK1 cells in order to determine apparent permeability (Papp). LLC-PK1 cells can form a tight monolayer and therefore can be used to assess vectorial transport of compounds from basolateral to apical (B→A) and from apical to basolateral (A→B).
To determine Papp, LLC-PK1 cells are cultured in 96-well transwell culture plates (Millipore). Solutions containing the test compounds (1 μM) are prepared in Hank's Balanced Salt Solution with 10 mM HEPES. Substrate solution (150 μL) is added to either the apical (A) or the basolateral (B) compartment of the culture plate, and buffer (150 μL) is added to the compartment opposite to that containing the compound. At t=3 h, 50 μL samples are removed from both sides of monolayers dosed with test compound and placed in 96 well plates, scintillant (200 μL) or internal standard (100 μL labetolol 1 μM) is added to the samples and concentration is determined by liquid scintillation counting in a MicroBeta Wallac Trilux scintillation counter (Perkin Elmer Life Sciences, Boston, Mass.) or by LCMS/MS (Applied Biosystems SCIEX API 5000 triple quadruple mass spectrometer). [^3H]Verapamil (1 μM) is used as the positive control. The experiment is performed in triplicate.
The apparent permeability, Papp, is calculated by the following formula for samples taken at t=3 h: […]
A word on the Papp: it is the rate of passage across a membrane or cell layer, normalised by area and donor concentration. For `CNC(=O)[C@@H]1[C@@H](O)[C@@H](O)[C@H](O)[C@@H](CO)N1CCCc1ccc(-c2ccccc2)cc1` [Example 3, (2S,3R,4S,5R,6R)-1-(3-([1,1′-biphenyl]-4-yl)propyl)-3,4,5-trihydroxy-6-(hydroxymethyl)-N-methylpiperidine-2-carboxamide], the apparent permeability coefficient (Papp) at 3 h, 1 μM stood at 3 ×10⁻⁶ cm/s.
